Test results as given in ChEMBL document CHEMBL1133366, “Synthesis and structure-activity relationships of 3-cyano-4-(phenoxyanilino)quinolines as MEK (MAPKK) inhibitors” (Bioorg Med Chem Lett, 2000).

Columns and labels:
[1] = biological target: T1, Serine/threonine-protein kinase RAF and Dual specificity mitogen-activated protein kinase kinase 1 (Raf/MEK) (Homo sapiens, UniProt P04049+Q02750); experiment: Inhibition of ERK-phosphorylation by Raf-MEK-ERK in coupled ELISA; assay type: protein assay
[2] = biological target: Dual specificity mitogen-activated protein kinase kinase 1 (Homo sapiens, UniProt Q02750); experiment: Inhibition of ERK-phosphorylation by MEK-ERK in direct ELISA
Chain of Dual specificity mitogen-activated protein kinase kinase 1 (Q02750 whole entry): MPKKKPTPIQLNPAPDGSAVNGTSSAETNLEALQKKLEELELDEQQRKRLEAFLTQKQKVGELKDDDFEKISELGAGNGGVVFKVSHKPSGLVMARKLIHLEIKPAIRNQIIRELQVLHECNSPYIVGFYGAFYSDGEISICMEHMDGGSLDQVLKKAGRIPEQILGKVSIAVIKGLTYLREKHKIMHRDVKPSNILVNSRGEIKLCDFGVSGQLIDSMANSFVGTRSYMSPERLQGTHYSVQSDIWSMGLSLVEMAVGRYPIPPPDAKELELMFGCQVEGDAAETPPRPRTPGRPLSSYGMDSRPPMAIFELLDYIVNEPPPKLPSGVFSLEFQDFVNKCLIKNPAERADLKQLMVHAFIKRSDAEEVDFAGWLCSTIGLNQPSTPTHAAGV

LoVo = experiment: Inhibition of LoVo human colon tumor cell proliferation
SW-620 = experiment: Inhibition of SW620 human colon tumor cell proliferation
COLO 205 = experiment: cells; details: Homo sapiens
Description: Inhibition of COLO 205 human colon tumor cell proliferation

[3] = biological target: T1, Serine/threonine-protein kinase RAF and Dual specificity mitogen-activated protein kinase kinase 1 (Raf/MEK); experiment: Inhibition of ERK phosphorylation in coupled Raf-MEK-ERK ELISA (Weakly active); assay type: protein assay

| SMILES | IC50 [1] [nM] | IC50 [2] [nM] | IC50 (LoVo) [nM] | IC50 (SW-620) [nM] | IC50 (COLO 205) [nM] | IC50 [3] [nM] |
| --- | --- | --- | --- | --- | --- | --- |
| COc1cc2ncc(C#N)c(Nc3ccccc3Oc3ccccc3)c2cc1OC | > 10000 | > 10000 |  |  |  |  |
| COc1cc2c(Nc3ccc(Oc4ccccc4)cc3)c(C#N)cnc2cc1OCCCN1CCOCC1 | 2.4 | 7 | 190 | 380 | 360 |  |
| COc1cc2c(Nc3ccc(Oc4ccccc4)cc3)c(C#N)cnc2cc1OCCN1CCOCC1 |  |  | 250 | 700 | 630 |  |
| COc1cc2ncnc(Nc3ccc(Oc4ccccc4)cc3)c2cc1OC |  |  |  |  |  | > 100000 |

Second part, the molecule after the results:

| IC50 [1] [nM] | IC50 [2] [nM] | IC50 (LoVo) [nM] | IC50 (SW-620) [nM] | IC50 (COLO 205) [nM] | IC50 [3] [nM] | SMILES |
| --- | --- | --- | --- | --- | --- | --- |
|  |  | 630 | 1500 | 1430 |  | COc1cc2ncc(C#N)c(Nc3ccc(Oc4ccccc4)cc3)c2cc1OC |
| > 10000 | > 10000 |  |  |  |  | COc1cc2c(Nc3ccc(Oc4ccccc4)cc3)c(C#N)cnc2c(OC)c1OC |
| > 10000 | > 10000 |  |  |  |  | COc1ccc(OC)c2c(Nc3ccc(Oc4ccccc4)cc3)c(C#N)cnc12 |
| > 10000 | > 10000 |  |  |  |  | COc1cccc2c(Nc3ccc(Oc4ccccc4)cc3)c(C#N)cnc12 |
